Data from US4544660A, “Pharmaceutically active tropanes” (Beecham Group p.l.c., priority 1978, dated 1985).

Tests used:
Assay type in all cases: in vivo
[1] = test system: Dopamine Receptor; assay: Inhibition of apomorphine induced climbing in the mouse; conditions: p.o., apomorphine 1 mg/kg s.c., complete inhibition
Procedure: (§1) I. Dopamine Receptor Blocking Activity in the Central Nervous System
(b) Inhibition of apomorphine induced climbing in the mouse
The test is based on that described by Protais, P., Constantin, J. and Schwartz J.C. (1976), Psychopharmacology, 50, 1-6.
Apomorphine 1 mg/kg s.c. induces mice to climb the wall of a wire cage (inverted food hopper--11×7.5×18 cm high). Mice acclimatised in their home cages in groups of 5 are placed under the hoppers immediately after the injection of apomorphine 1 mg/kg s.c. At 10,20 and 30 minutes after injection climbing behaviour is scored. The mice are observed for 30 seconds and scored according to the position they spend the majority of time in, score 0--four paws on floor of cage; score 1--fore paws only on walls; score 2--all paws on wall of cage. The scores at all 3 times and for each mouse are summed and mice drug treated orally compared to mice receiving apomorphine only. A saline only treated group is also included and any score, generally <5% of maximum taken into account.

[2] = test system: intragastric pressure; assay: Increase in intragastric pressure in the rat; parameters: III(a) Increase in Intragastric Pressure Dose (minimum dose for activity): unit not given here; conditions: s.c., 40 minute period after administration; for minimal effective dose: sc, 40 min, read-out: III(a) Increase in Intragastric Pressure Dose (minimum dose for activity)
Procedure: (a) Increase in intragastric pressure in the rat
Intragastric pressure changes were recorded from previously starved conscious but restrained rats using a saline filled catheter inserted into the lumen of the stomach via a permanent gastric fistula. The catheter was connected to a physiological pressure transducer and pressure changes recorded on a hot wire pen recorder. In each animal a pre-dose period of 40 minutes was allowed to obtain a measure of spontaneous activity. An index of activity was obtained by measuring the average height of pressure waves during 10 minute periods. Values for 4 such periods were obtained during assessment of spontaneous activity and for the 40 minute period after the subcutaneous administration of the compounds. Students `t` test was applied to the difference in average values obtained for spontaneous and post-compound activity.

[3] = test system: vomiting response; assay: Anti-emetic activity in the dog (apomorphine induced vomiting); conditions: Canis lupus familiaris, 30 min before apomorphine HCl 0.1 mg/kg s.c.; for ED100: s.c., complete inhibition, read-out: II Anti-Emetic Activity Dose, Complete Inhibition
Procedure: II. Anti-emetic activity in the dog
Compounds were administered subcutaneously 30 minutes prior to administration of a standard dose of apomorphine HCl (0.1 mg/kg subcutaneously) and the vomiting response compared to that obtained when the same animals were dosed with apomorphine HCl and vehicle only.

[4] = test system: gastric emptying; assay: Increase in gastric emptying: reversal of apomorphine induced delay in gastric emptying in the rat; parameters: key to III(b) Increase in Gastric Emptying: IA: inactive at the dose in the brackets, mg/Kg s.c; conditions: 10 mg/kg s.c.; for III(b) Increase in Gastric Emptying: apomorphine HCl 5 mg/kg s.c. induced delay
Procedure: (b) Increase in gastric emptying: reversal of apomorphine induced delay in gastric emptying in the rat
Rats equipped with chromic gastric fistulae were used and it was through this that 5 ml of a test meal (5 ml phosphate buffer at pH 9) was administered and recovered. The % recovery of the standard meal after remaining in the stomach for 10 minutes was taken as an index of gastric emptying. Delay in gastric emptying was induced by the administration of apomorphine HCl (5 mg/kg subcutaneously) which was given 15 minutes prior to the subcutaneous administration of the compound. The % recoveries of the test meal were determined at 15-25 and 45-55 minutes post-dosing with the compound and compared with vehicle only dosed animals set up simultaneously. Six animals were used for each group.

[5] = test system: Dopamine Receptor; assay: Inhibition of apomorphine induced stereotype behaviour in the rat; conditions: s.c., apomorphine induced, complete inhibition, IA(x) = inactive at dose in brackets
Description: as §1
(a) Inhibition of apomorphine induced stereotype behaviour in the rat
(method of Ernst (1967), Psychopharmacologia (Berl.) 10 316-323).

COc1cc(N)c(Cl)cc1C(=O)N[C@@H]1C[C@H]2CC[C@@H](C1)[N+]2(C)Cc1ccccc1 (stereo partly drawn) [Compound 10, 4-Amino-5-chloro-2-methoxy-N-(3'β-[8'-benzyl]-8'-azabicyclo[3.2.1]octyl)-benzamide methobromide]
I(b) Anti-Climbing Activity Dose, Complete Inhibition [1]: IA(2)
minimal effective dose [2]: 0.25 mg/kg

CCOc1ccc(CN2[C@@H]3CC[C@H]2C[C@H](NC(=O)c2cc(Cl)c(N)cc2OC)C3)cc1 [Compound 15, 4amino-5-chloro-2-methoxy-N-(3β-[8'[4"ethoxybenzyl]-8'-azabicyclo[3.2.1]octyl])-benzamide]
I(b) Anti-Climbing Activity Dose, Complete Inhibition [1]: 10 mg/kg
ED100 [3]: 0.1 mg/kg

C=CCN1[C@@H]2CC[C@H]1C[C@H](NC(=O)c1cc(Cl)c(N)cc1OC)C2 [Compound 32, 4-amino-5-chloro-2-methoxy-N-(3'β-[8'-ally-8-azabicyclo[3.2.1]octyl])benzamide]
ED100 [3]: 0.2 mg/kg

CCCN1[C@@H]2CC[C@H]1C[C@H](NC(=O)c1cc(Cl)c(N)cc1OC)C2 [Compound 24, 4-amino-5-chloro-2-methoxy-N-(3'β-[8'-n-propyl-8'-azabicyclo[3.2.1]-octyl])benzamide]
I(b) Anti-Climbing Activity Dose, Complete Inhibition [1]: IA (inactive at 10 mg/Kg p.o.)
III(b) Increase in Gastric Emptying [4]: IA(25)
minimal effective dose [2]: 5 to 10 mg/kg
I(a) Dose Inhibiting Stereotype Behaviour (dose for complete inhibition) [5]: IA(25)
ED100 [3]: 0.4 mg/kg

COc1ccc(CN2[C@@H]3CC[C@H]2C[C@H](NC(=O)c2cc(Cl)c(N)cc2OC)C3)cc1 [Compound 14, 4amino-5-chloro-2-methoxy-N-(3β-[8'[4"methoxybenzyl]-8'-azabicyclo[3.2.1]octyl])-benzamide]
I(b) Anti-Climbing Activity Dose, Complete Inhibition [1]: 10 mg/kg
ED100 [3]: 0.1 mg/kg

COc1cc(N)c(Cl)cc1C(=O)N(C)[C@H]1C[C@H]2CC[C@@H](C1)N2Cc1ccccc1 [Compound 6, 4-Amino-5-chloro-2-methoxy-N-methyl-N-(3'α-[8'-benzyl-8'-azabicyclo[3.2.1]octyl])benzamide]
I(b) Anti-Climbing Activity Dose, Complete Inhibition [1]: IA (inactive at 10 mg/Kg p.o.)
III(b) Increase in Gastric Emptying [4]: IA(50)
minimal effective dose [2]: 10 mg/kg
I(a) Dose Inhibiting Stereotype Behaviour (dose for complete inhibition) [5]: IA(50)

COc1cc(N)c(Cl)cc1C(=O)N[C@@H]1C[C@H]2CCC[C@@H](C1)N2C [Compound 22, 4-amino-5-chloro-2-methoxy-N-(3'β-[9'-methyl-9'-azabicyclo[3.3.1]-nonyl])-benzamide]
I(b) Anti-Climbing Activity Dose, Complete Inhibition [1]: IA (inactive at 10 mg/Kg p.o.)
III(b) Increase in Gastric Emptying [4]: IA(25)
minimal effective dose [2]: 1 mg/kg
I(a) Dose Inhibiting Stereotype Behaviour (dose for complete inhibition) [5]: IA(25)

COc1cc(N)c(Cl)cc1C(=O)NC1CC2CCC(C1)N2Cc1ccccc1 (stereo not drawn) [Compound 2, 4-amino-5-chloro-2-methoxy-N-(3'α, 8-[8'-benzyl]8-azabicyclo[3,2,1]octyl)benzamide]
% Recovery of test meal, mean ± S.E. of mean, 15-25 mins. ([4]; 15-25 mins post dosing, apomorphine, printed with **, apomorphine + vehicle 72.4 ± 5.1): 37.4 ± 6.7%
% Recovery of test meal, mean ± S.E. of mean, 45-55 mins. ([4]; 45-55 mins post dosing, apomorphine, printed with ***, apomorphine + vehicle 60.7 ± 7.3): 18.3 ± 1.1%
I(a) Dose Inhibiting Stereotype Behaviour (dose for complete inhibition) [5]: 10 mg/kg
ED100 [3]: 0.0025 mg/kg

COc1cc(N)c(Cl)cc1C(=O)N[C@H]1C[C@H]2CC[C@@H](C1)N2Cc1ccccc1 [Compound 3, 4-amino-5-chloro-2-methoxy-N-(3',α-[8'-benzyl]nortropyl)benzamide]
I(a) Dose Inhibiting Stereotype Behaviour (dose for complete inhibition) [5]: 50 mg/kg
ED100 [3]: 0.05 mg/kg

COc1cc(N)c(Cl)cc1C(=O)N[C@@H]1C[C@H]2CC[C@@H](C1)N2C(C)C [Compound 25, 4-amino-5-chloro-2-methoxy-N-(3'β-[8'-iso-propyl-8'-azabicyclo[3.2.1]-octyl])benzamide]
I(b) Anti-Climbing Activity Dose, Complete Inhibition [1]: IA (inactive at 10 mg/Kg p.o.)
III(b) Increase in Gastric Emptying [4]: IA
minimal effective dose [2]: 5 mg/kg
I(a) Dose Inhibiting Stereotype Behaviour (dose for complete inhibition) [5]: IA(25)
ED50 ([3]; sc, ED50, read-out: II Anti-Emetic Activity Dose, ED50): 0.8 mg/kg

COc1cc(N)c(Cl)cc1C(=O)N[C@H]1C[C@H]2CCC[C@@H](C1)N2Cc1ccccc1 [Compound 11, 4-amino-5-chloro-2-methoxy-N-(3'α-[9'-benzyl-9'-azabicyclo-[3,3,1]-nonyl])-benzamide]
I(b) Anti-Climbing Activity Dose, Complete Inhibition [1]: IA (inactive at 10 mg/Kg p.o.)
minimal effective dose [2]: 1 mg/kg
I(a) Dose Inhibiting Stereotype Behaviour (dose for complete inhibition) [5]: IA(50)

COc1cc(N)c(Cl)cc1C(=O)N[C@H]1C[C@H]2CCC[C@@H](C1)N2C [Compound 21, 4-amino-5-chloro-2-methoxy-N-(3'α-[9'-methyl-9'-azabicyclo[3.3.1]nonyl])benzamide]
I(b) Anti-Climbing Activity Dose, Complete Inhibition [1]: 10 mg/kg
minimal effective dose [2]: 5 mg/kg
I(a) Dose Inhibiting Stereotype Behaviour (dose for complete inhibition) [5]: IA(50)

COc1ccc(S(N)(=O)=O)cc1C(=O)N[C@@H]1C[C@H]2CC[C@@H](C1)N2Cc1ccccc1 [Compound 8, 5-Sulphamoyl-2-methoxy-N-(3'β-[8'-benzyl]-8'-azabicyclo-[3.2.1]-octyl)-benzamide]
I(b) Anti-Climbing Activity Dose, Complete Inhibition [1]: IA (inactive at 10 mg/Kg p.o.)
III(a) Increase in Intragastric Pressure Dose (minimum dose for activity) [2]: IA(5)
ED100 [3]: 0.1 mg/kg

COc1cc(N)c(Cl)cc1C(=O)N[C@@H]1C[C@H]2CC[C@@H](C1)N2C1CCCCC1 [Compound 31, 4-amino-5-chloro-2-methoxy-N-(3'β-[8'-cyclohexyl-8-azabicyclo[3.2.1]octyl])benzamide]
I(b) Anti-Climbing Activity Dose, Complete Inhibition [1]: IA (inactive at 10 mg/Kg p.o.)
ED100 [3]: 0.25 mg/kg

COc1cc(N)c(Cl)cc1C(=O)N[C@@H]1C[C@H]2CC[C@@H](C1)N2CC(C)C [Compound 28, 4-amino-5-chloro-2-methoxy-N-(3'β-[8'-isobutyl-8'-azabicyclo-[3.2.1]-octyl])-benzamide]
minimal effective dose [2]: 5 mg/kg
ED100 [3]: 0.2 mg/kg

COc1ccccc1C(=O)N[C@@H]1C[C@H]2CC[C@@H](C1)N2Cc1ccccc1 [Compound 9, 2-Methoxy-N-(3'β-[8'-benzyl-8'-azabicyclo-[3.2.1]-octyl])-benzamide]
I(b) Anti-Climbing Activity Dose, Complete Inhibition [1]: 10 mg/kg
ED100 [3]: 0.1 mg/kg

CCN1[C@@H]2CC[C@H]1C[C@H](NC(=O)c1cc(Cl)c(N)cc1OC)C2 [Compound 23, 4-amino-5-chloro-2-methoxy-N-(3'β-[8'-ethyl-8'-azabicyclo[3.2.1]octyl])benzamide]
I(b) Anti-Climbing Activity Dose, Complete Inhibition [1]: IA (inactive at 10 mg/Kg p.o.)
III(b) Increase in Gastric Emptying [4]: 25%
minimal effective dose [2]: 1 to 10 mg/kg
I(a) Dose Inhibiting Stereotype Behaviour (dose for complete inhibition) [5]: IA(25)
ED100 [3]: 1.6 mg/kg

COc1cc(N)c(Cl)cc1C(=O)N[C@@H]1C[C@H]2CC[C@@H](C1)N2Cc1ccc(Cl)cc1 [Compound 16, 4amino-5-chloro-2-methoxy-N-(3β-[8'[4"chlorobenzyl]-8'-azabicyclo[3.2.1]octyl])-benzamide]
I(b) Anti-Climbing Activity Dose, Complete Inhibition [1]: 2 mg/kg
